Source: ChEMBL document CHEMBL1125639, “Synthesis and resolution of (+-)-7-chloro-8-hydroxy-1-(3'-iodophenyl)-3-methyl-2,3,4,5-tetrahydro- 1H-3- benzazepine (TISCH): a high affinity and selective iodinated ligand for CNS D1 dopamine receptor” (J Med Chem, 1991)

Organism: Rattus norvegicus
Type: functional, Striatum, Membrane
Description: Inhibition constant of compound on R-(+)-125[I]-8 radioligand binding to rat striatal membranes

- Ki: > 3000 nM
Structure (SMILES): NCCc1ccc(O)c(O)c1 [DOPAMINE]
